Tests used:
Septoria tritici = assay: Example B-3: Action against Septoria tritici, fungal growth assay; assay type: cell-based; details: Zymoseptoria tritici; 0.002% active ingredient; PDB broth, 24° C., photometric after 72 hrs
Protocol: (§1) Action Against Septoria tritici—Fungal Growth Assay Conidia of the fungus from cryogenic storage were directly mixed into nutrient broth (PDB potato dextrose broth). After placing a (DMSO) solution of the test compounds (0.002% active ingredient) into a microtiter plate (96-well format) the nutrient broth containing the fungal spores was added. The test plates were incubated at 24° C. and the inhibition of growth was determined photometrically after 72 hrs. The activity of a compound was expressed as fungal growth inhibition (0=no growth inhibition, ratings of 80% to 99% mean good to very good inhibition, 100%=complete inhibition).

Botrvtis cinerea = assay: Example B-1: Action against Botrytis cinerea, fungal growth assay; assay type: cell-based; details: 0.002% active ingredient, PDB broth, 24° C., photometric after 3-4 days
Protocol: as §1, with “Action against Botrvtis cinerea—fungal growth assay” for “Action Against Septoria tritici—Fungal Growth Assay”, “storage was” for “storage were”, “was measured” for “was determined”, “after 3-4 days.” for “after 72 hrs.”

[1] = tested on: Mycosphaerella arachidis (Cercospora arachidicola); assay: Example B-2: Action against Mycosphaerella arachidis, fungal growth assay; assay type: cell-based; details: 0.002% active ingredient, PDB broth, 24° C., photometric after 6-7 days
Protocol: as §1, with “Mycosphaerella arachidis (Early Leaf Spot of Groundnut; Cercospora arachidicola [fanamorph])—Fungal” for “Septoria tritici—Fungal”, “measured” for “determined”, “6-7 days.” for “72 hrs.”

Puccinia recondita [2] = assay: Example B-6: Protective action against Puccinia recondita (brown rust) on wheat leaf segments; assay type: in vivo; details: foliar, 192 h, 0.02% active ingredient, 8 days after inoculation, read-out: preventive fungicidal activity (inhibition)
Protocol: (§2) Protective Action Against Puccinia recondita (Brown Rust) on Wheat Wheat leaf segments were placed on agar in multiwell plates (24-well format) and sprayed with test solutions (0.02% active ingredient). After drying, the leaf disks were inoculated with a spore suspension of the fungus. After appropriate incubation the activity of a compound was assessed 8 days after inoculation as preventive fungicidal activity.

Pyrenophora teres [3] = assay: Example B-8: Action against Pyrenophora teres (net blotch) on barley leaf segments; assay type: in vivo; details: foliar, 96 h, 0.02% active ingredient, 4 days after inoculation, read-out: preventive fungicidal activity (inhibition)
Protocol: as §2, with “Action” for “Protective Action”, “Pyrenophora teres (Net Blotch)” for “Puccinia recondita (Brown Rust)”, “Barley Barley” for “Wheat Wheat”, “4” for “8”

[4] = tested on: Erysiphe graminis f. sp. tritici; assay: Example B-5: Action against Erysiphe graminis f. sp. tritici (wheat powdery mildew), wheat leaf segments; assay type: in vivo; details: Blumeria graminis, foliar, 168 h, 0.02% active ingredient, 7 days after inoculation, read-out: preventive fungicidal activity (inhibition)
Protocol: as §2, with “Action” for “Protective Action”, “Erysiphe graminis f. sp. tritici (Wheat Powdery Mildew)” for “Puccinia recondita (Brown Rust) on Wheat”, “7” for “8”

[5] = tested on: Blumeria graminis f. sp. tritici (Erysiphe graminis f. sp. tritici); assay: Example B-9: Blumeria graminis f. sp. tritici / wheat / leaf disc preventive (comparative); assay type: in vivo; details: 4 dpi
Protocol: Blumeria graminis f. sp. tritici (Erysiphe graminis f. sp. tritici)/Wheat/Leaf Disc Preventive (Powdery mildew on wheat) Wheat leaf segments were placed on agar in a multiwell plate (24-well format) and sprayed with test solutions. After drying, the leaf disks were inoculated with a spore suspension of the fungus. After appropriate incubation the activity of a compound was assessed 4 dpi (days after inoculation) as preventive fungicidal activity.

Alternaria solani = assay: Example B-13: Alternaria solani / tomato / leaf disc (comparative); assay type: in vivo; details: 4 dpi
Protocol: Alternaria solani/Tomato/Leaf Disc (Early Blight) Tomato leaf disks were placed on water agar in multiwell plates (24-well format) and sprayed with test solutions. After drying, the leaf disks were inoculated with a spore suspension of the fungus. After appropriate incubation the activity of a compound was assessed 4 dpi (days after inoculation) as preventive fungicidal activity.

[6] = tested on: Botryotinia fuckeliana (Botrytis cinerea); assay: Example B-14: Botryotinia fuckeliana (Botrytis cinerea) / liquid culture (comparative); assay type: cell-based; details: 24° C., photometric after 3-4 days, read-out: inhibition of growth
Protocol: (§3) Botryotinia fuckeliana (Botrytis cinerea)/Liquid Culture (Gray Mould) Conidia of the fungus from cryogenic storage were directly mixed into nutrient broth. After placing a (DMSO) solution of the test compounds into a microtiter plate (96-well format) the nutrient broth containing the fungal spores was added. The test plates were incubated at 24° C. and the inhibition of growth is determined photometrically after 3-4 days.

[7] = tested on: Monopraphella nivalis (Microdochium nivale); assay: Example B-18: Monographella nivalis (Microdochium nivale) / liquid culture (comparative); assay type: cell-based; details: 24° C., photometric after 4-6 days, read-out: inhibition of growth
Protocol: as §3, with “Monopraphella nivalis (Microdochium nivale)/Liquid” for “Botryotinia fuckeliana (Botrytis cinerea)/Liquid”, “(Foot Rot Cereals” for “(Gray Mould)”, “broth (PDB potato dextrose broth).” for “broth.”, “measured” for “determined”, “4-6” for “3-4”

[8] = tested on: Mycosphaerella praminicola (Seotoria tritici); assay: Example B-16: Mycosphaerella graminicola (Septoria tritici) / liquid culture (comparative); assay type: cell-based; details: 96 h, 24° C., photometric after 4 days, read-out: inhibition of growth
Protocol: as §3, with “Mycosphaerella praminicola (Seotoria tritici)/Liquid” for “Botryotinia fuckeliana (Botrytis cinerea)/Liquid”, “(Septoria Blotch)” for “(Gray Mould)”, “broth (PDB potato dextrose broth).” for “broth.”, “measured” for “determined”, “4” for “3-4”

[9] = tested on: Mycosphaerella arachidis (Cercospora arachidicola); assay: Example B-15: Mycosphaerella arachidis / liquid culture (comparative); assay type: cell-based; details: 24° C., photometric after 6-7 days, read-out: inhibition of growth
Protocol: as §3, with “Mycosphaerella arachidis (Cercospora arachidicola)/Liquid” for “Botryotinia fuckeliana (Botrytis cinerea)/Liquid”, “(Early Leaf Spot)” for “(Gray Mould)”, “broth (PDB potato dextrose broth).” for “broth.”, “measured” for “determined”, “6-7” for “3-4”

Gaeumannomyces graminis = assay: Example B-17: Gaeumannomyces graminis / liquid culture (comparative); assay type: cell-based; details: 24 C, photometric after 2-3 days, read-out: inhibition of growth
Protocol: Gaeumannomyces graminis/Liquid Culture (Take-All of Cereals) Mycelial fragments of the fungus from cryogenic storage were directly mixed into nutrient broth (PDB potato dextrose broth). After placing a (DMSO) solution of the test compounds into a microtiter plate (96-well format) the nutrient broth containing the fungal spores was added. The test plates were incubated at 24 C and the inhibition of growth was determined photometrically after 2-3 days.

Puccinia recondita [10] = assay: Example B-10: Puccinia recondita / wheat / leaf disc preventative (comparative); assay type: in vivo; details: 8 dpi
Protocol: Puccinia recondita/Wheat/Leaf Disc Preventative (Brown Rust) Wheat leaf segments were placed on agar in multiwell plates (24-well format) and sprayed with test solutions. After drying, the leaf disks were inoculated with a spore suspension of the fungus. After appropriate incubation the activity of a compound was assessed 8 dpi (days after inoculation) as preventive fungicidal activity.

[11] = tested on: Phaeosphaeria nodorum (Septoria nodorum); assay: Example B-11: Phaeosphaeria nodorum / wheat / leaf disc preventative (comparative); assay type: in vivo; details: 4 dpi
Protocol: (§4) Phaeosphaeria nodorum (Septoria nodorum)/Wheat/Leaf Disc Preventative (Glume Blotch) Wheat leaf segments were placed on agar in a multiwell plate (24-well format) and sprayed with test solutions. After drying, the leaf disks were inoculated with a spore suspension of the fungus. After appropriate incubation the activity of a compound was assessed 4 dpi (days after inoculation) as preventive fungicidal activity.

Pyrenophora teres [12] = assay: Example B-12: Pyrenophora teres / barley / leaf disc preventive (comparative); assay type: in vivo; details: 4 dpi
Protocol: as §4, with “Pyrenophora teres/Barley/Leaf” for “Phaeosphaeria nodorum (Septoria nodorum)/Wheat/Leaf”, “Preventive (Net” for “Preventative (Glume”, “Barley” for “Wheat”

With `CON(Cc1cccc(I)c1)C(=O)c1cn(C)nc1C(F)F` [Compound 1.097, 3-difluoromethyl-1,1-dimethyl-1H-pyrazole-4-carboxylic acid (3-iodo-benzyl)-methoxy-amide] the melting point was 114 to 116 °C, the inhibition at 0.002 % strength (Septoria tritici) was no less than 80% and the inhibition at 0.002 % strength (Botrvtis cinerea) was no less than 80%. It also gave an inhibition at 0.002 % strength [1] of no less than 80%.
Work on `CON(C(=O)c1cn(C)nc1C(F)F)C(C)c1ccc(Oc2ccc(Cl)cc2)cc1` (stereo not shown) [Compound 1.010, 3-difluoromethyl-1-methyl-1H-pyrazole-4-carboxylic acid {1-[4-(4-chloro-phenoxy)-phenyl]-ethyl}-methoxy-amide] yielded an inhibition at 0.02 % strength (Puccinia recondita [2]) of no less than 80%, an inhibition at 0.002 % strength (Septoria tritici) of no less than 80% and an inhibition at 0.002 % strength (Botrvtis cinerea) of no less than 80%. For the same compound, the inhibition at 0.02 % strength (Pyrenophora teres [3]) was no less than 80%, the inhibition at 0.02 % strength [4] was no less than 80% and the inhibition at 0.002 % strength [1] was no less than 80%.
`CON(Cc1cccc(-c2ccc(Cl)cc2)c1)C(=O)c1cn(C)nc1C(F)F` [Compound 1.098, 3-difluoromethyl-1-methyl-1H-pyrazole-4-carboxylic acid (4′-chloro-biphenyl-3-ylmethyl)-methoxy-amide] showed an inhibition at 0.02 % strength (Puccinia recondita [2]) of no less than 80%, an inhibition at 0.002 % strength (Septoria tritici) of no less than 80% and an inhibition at 0.002 % strength (Botrvtis cinerea) of no less than 80%. The inhibition at 0.02 % strength (Pyrenophora teres [3]) was no less than 80%, the inhibition at 0.02 % strength [4] was no less than 80% and the inhibition at 0.002 % strength [1] was no less than 80%.
With `CON(C(=O)c1cn(C)nc1C(F)F)C(C)c1cccc(Oc2ccc(Cl)cc2)c1` (stereo not shown) [Compound 1.021, 3-difluoromethyl-1-methyl-1H-pyrazole-4-carboxylic acid {1-[3-(4-chloro-phenoxy)-phenyl]-ethyl}-methoxy-amide] the inhibition at 0.02 % strength (Puccinia recondita [2]) was no less than 80%, the inhibition at 0.002 % strength (Septoria tritici) was no less than 80% and the inhibition at 0.002 % strength (Botrvtis cinerea) was no less than 80%. For the same compound, the inhibition at 0.02 % strength (Pyrenophora teres [3]) was no less than 80%, the inhibition at 0.02 % strength [4] was no less than 80% and the inhibition at 0.002 % strength [1] was no less than 80%.
With `CON(C(=O)c1cn(C)nc1C(F)F)C(C)c1cccc(-c2ccc(Cl)cc2)c1` (stereo not shown) [Compound 1.019, 3-difluoromethyl-1-methyl-1H-pyrazole-4-carboxylic acid [1-(4′ chloro-biphenyl-3-yl)-ethyl]-methoxy-amide] the inhibition at 0.02 % strength (Puccinia recondita [2]) was no less than 80%, the inhibition at 0.002 % strength (Septoria tritici) was no less than 80% and the inhibition at 0.002 % strength (Botrvtis cinerea) was no less than 80%. It also gave an inhibition at 0.02 % strength (Pyrenophora teres [3]) of no less than 80%, an inhibition at 0.02 % strength [4] of no less than 80% and an inhibition at 0.002 % strength [1] of no less than 80%.
In the case of `CC(NC(=O)c1cn(C)nc1C(F)F)c1ccc(Cl)cc1Cl` (stereo not shown) [No. 1.042 (prior art), reference compound], the preventive fungicidal activity ([5]; 20 ppm) is reported as 0, the preventive fungicidal activity ([5]; 60 ppm) is reported as 50 and the preventive fungicidal activity ([5]; 200 ppm) is reported as 100. The preventive fungicidal activity (Alternaria solani; 20 ppm) was 0, the preventive fungicidal activity (Alternaria solani; 60 ppm) was 20 and the preventive fungicidal activity (Alternaria solani; 200 ppm) was 70. The inhibition at 20 ppm ([6]; 20 ppm) was 0%, the inhibition at 60 ppm ([6]; 60 ppm) was 20% and the inhibition at 200 ppm ([6]; 200 ppm) was 50%. The inhibition at 6 ppm ([7]; 6 ppm) was 0%, the inhibition at 20 ppm ([7]; 20 ppm) was 0% and the inhibition at 60 ppm ([7]; 60 ppm) was 50%. For the same compound, the inhibition at 6 ppm ([8]; 6 ppm) was 20%, the inhibition at 20 ppm ([8]; 20 ppm) was 100% and the inhibition at 60 ppm ([8]; 60 ppm) was 100%. The inhibition at 6 ppm ([9]; 6 ppm) was 0%, the inhibition at 20 ppm ([9]; 20 ppm) was 100% and the inhibition at 60 ppm ([9]; 60 ppm) was 100%. For the same compound, the inhibition at 6 ppm (Gaeumannomyces graminis; 6 ppm) was 0%, the inhibition at 20 ppm (Gaeumannomyces graminis; 20 ppm) was 0% and the inhibition at 60 ppm (Gaeumannomyces graminis; 60 ppm) was 0%. It also gave a preventive fungicidal activity (Puccinia recondita [10]; 20 ppm) of 0, a preventive fungicidal activity (Puccinia recondita [10]; 60 ppm) of 0 and a preventive fungicidal activity (Puccinia recondita [10]; 200 ppm) of 50. It also gave a preventive fungicidal activity ([11]; 20 ppm) of 0, a preventive fungicidal activity ([11]; 60 ppm) of 0 and a preventive fungicidal activity ([11]; 200 ppm) of 70. It also gave a preventive fungicidal activity (Pyrenophora teres [12]; 20 ppm) of 50, a preventive fungicidal activity (Pyrenophora teres [12]; 60 ppm) of 90 and a preventive fungicidal activity (Pyrenophora teres [12]; 200 ppm) of 100.

— patent US8357634B2, “N-alkoxycarboxamides and their use as microbiocides” (Syngenta Crop Protection LLC, priority 2009, dated 2013)
